{
  "source": "patent US20230235409A1",
  "about": "“METHOD OF PREDICTING THERAPEUTIC RESPONSE AND PROGNOSIS OF METASTATIC BREAST CANCER TO CHEMOTHERAPEUTIC AGENTS, AND TREATING METASTATIC BREAST CANCER” (Samsung Life Public Welfare Foundation, priority 2021, published 2023)",
  "system": "premenopausal HR+/HER2− metastatic breast cancer",
  "assay": "Kaplan Meier PFS analysis of capecitabine-treated patients by five-gene marker combination",
  "format": "in vivo",
  "method": "Among 141 premenopausal HR+/HER2− MBC patients, a tumor sample was isolated from a group (n=62) administered with capecitabine, and sequencing was performed on the sample. CancerSCAN™ targeted panel sequencing was performed to detect 375 cancer-related gene variations, and transcriptome analysis was performed to detect overall gene expression patterns.\nA univariate Cox proportional hazard model was analyzed for each genetic variation/CNV, the p-value derived by the log-rank test was defined as a p-value cutoff of 0.05 as the criterion for a statistically significant difference, and 30 biomarkers with p-value<0.05 were selected as candidate markers. […] In other words, the description of “NF2+FAT3” includes the case where there exists a mutation in either NF2 or FAT3 gene.",
  "data": [
    {"smiles": "CCCCCOC(=O)Nc1nc(=O)n([C@@H]2O[C@H](C)[C@@H](O)[C@H]2O)cc1F", "note": "[capecitabine]", "values": [
      {"measurement": "median PFS", "setting": "mutant group (mutation in NF2, FAT3, LRP1B, PTEN or RAD50), capecitabine-administered group n=62, FIG. 3", "result": 12, "unit": "months"},
      {"measurement": "risk of mutant group relative to normal group (WT), PFS", "setting": "mutant group vs WT (no mutation in all five genes), capecitabine-administered patients, FIG. 3", "result": "about 5 times"}
    ]}
  ]
}
